# According to patent US20250345392A1, “ANNEXIN A1 LIQUID PHARMACEUTICAL COMPOSITION” (ResoTher Pharma A/S, priority 2022, published 2025):
# Like-named read-outs stand apart in the source and are kept apart here. Ends that are not written are not given here.
# Experiment: 14-day repeat IV dose toxicity study with toxicokinetic evaluation on Day 1 and 14 in dogs
# Format: in vivo, beagle dogs
# Conditions: dog; for C0 / AUC(0-inf) / clearance / half-life / Vd: in vivo
# Description: Peptide 1 in blood samples collected from animals used in the studies (rat and dog) has been measured by an LC-MS/MS method. Analysis of samples collected in the pharmacokinetic study in rats was performed prior to validation of the method. Prior to analysis of samples from the GLP toxicology studies, the method was validated according to GLP to ensure that it is selective, accurate, reproducible, and able to produce reliable results. The method was validated over the range from 0.075 to 25 μg/mL Peptide 1.
# In the 14-day intravenous toxicity study in beagle dogs (see study description below), samples were collected from 3 male and 3 female animals per group dosed at 0 (Control), 1, 3 or 10 mg/kg/day at 2, 5, 10, 20 and 40 minutes after dosing on Days 1 and 14. Samples were analysed for levels of Peptide 1.
substance,measurement,setting,value
AMVSEFLKQAWFIENEEQEYVQTLKSSKGGPGSAVSPYPTFNPSSDV-NH2 [Peptide 1],exposure (C(0) and AUCinf) versus dose,from 1 mg/kg to 10 mg/kg,increase proportional to dose level
same,C0,"1 mg/kg, Group 2 (1 mg/kg), range over sexes and Days 1 and 14",4580 to 8580 ng/mL
same,AUC(0-inf),"1 mg/kg, Group 2 (1 mg/kg), range over sexes and Days 1 and 14, read-out: AUCinf",450 to 620 ng·h/mL
same,C0,"3 mg/kg, Group 3 (3 mg/kg), range over sexes and Days 1 and 14",12500 to 20000 ng/mL
same,AUC(0-inf),"3 mg/kg, Group 3 (3 mg/kg), range over sexes and Days 1 and 14, read-out: AUCinf",1420 to 1970 ng·h/mL
same,C0,"10 mg/kg, Group 4 (10 mg/kg), range over sexes and Days 1 and 14",26400 to 58300 ng/mL
same,AUC(0-inf),"10 mg/kg, Group 4 (10 mg/kg), range over sexes and Days 1 and 14, read-out: AUCinf",3930 to 4680 ng·h/mL
same,clearance,"all groups, read-out: clearance",27.4 to 42.7 mL/min/kg
same,half-life,"all groups, read-out: elimination half-life",4.66 to 6.59 min
same,C0,"iv, 1 mg/kg/day, IV 1.0 mg/kg/day, female, Day 1",6990 ng/mL
same,AUC(0-inf),"iv, 1 mg/kg/day, IV 1.0 mg/kg/day, female, Day 1, read-out: AUC0-∞ (converted)",537 ng·h/mL
same,clearance,"iv, 1 mg/kg/day, IV 1.0 mg/kg/day, female, Day 1, read-out: Cl",33.1 mL/min/kg
same,half-life,"iv, 1 mg/kg/day, IV 1.0 mg/kg/day, female, Day 1, read-out: T1/2",4.83 min
same,Vd,"iv, 1 mg/kg/day, IV 1.0 mg/kg/day, female, Day 1, read-out: Vz",0.232 L/kg
same,C0,"iv, 1 mg/kg/day, IV 1.0 mg/kg/day, female, Day 14",8580 ng/mL
same,AUC(0-inf),"iv, 1 mg/kg/day, IV 1.0 mg/kg/day, female, Day 14, read-out: AUC0-∞ (converted)",620 ng·h/mL
same,clearance,"iv, 1 mg/kg/day, IV 1.0 mg/kg/day, female, Day 14, read-out: Cl",27.4 mL/min/kg
same,half-life,"iv, 1 mg/kg/day, IV 1.0 mg/kg/day, female, Day 14, read-out: T1/2",4.66 min
same,Vd,"iv, 1 mg/kg/day, IV 1.0 mg/kg/day, female, Day 14, read-out: Vz",0.183 L/kg
same,C0,"iv, 1 mg/kg/day, IV 1.0 mg/kg/day, male, Day 1",4580 ng/mL
same,AUC(0-inf),"iv, 1 mg/kg/day, IV 1.0 mg/kg/day, male, Day 1, read-out: AUC0-∞ (converted)",450 ng·h/mL
same,clearance,"iv, 1 mg/kg/day, IV 1.0 mg/kg/day, male, Day 1, read-out: Cl",37.1 mL/min/kg
same,half-life,"iv, 1 mg/kg/day, IV 1.0 mg/kg/day, male, Day 1, read-out: T1/2",4.68 min
same,Vd,"iv, 1 mg/kg/day, IV 1.0 mg/kg/day, male, Day 1, read-out: Vz",0.251 L/kg
same,C0,"iv, 1 mg/kg/day, IV 1.0 mg/kg/day, male, Day 14",6590 ng/mL
same,AUC(0-inf),"iv, 1 mg/kg/day, IV 1.0 mg/kg/day, male, Day 14, read-out: AUC0-∞ (converted)",550 ng·h/mL
same,clearance,"iv, 1 mg/kg/day, IV 1.0 mg/kg/day, male, Day 14, read-out: Cl",31 mL/min/kg
same,half-life,"iv, 1 mg/kg/day, IV 1.0 mg/kg/day, male, Day 14, read-out: T1/2",6.59 min
same,Vd,"iv, 1 mg/kg/day, IV 1.0 mg/kg/day, male, Day 14, read-out: Vz",0.297 L/kg
same,C0,"iv, 3 mg/kg/day, IV 3.0 mg/kg/day, female, Day 1",16100 ng/mL
same,AUC(0-inf),"iv, 3 mg/kg/day, IV 3.0 mg/kg/day, female, Day 1, read-out: AUC0-∞ (converted)",1700 ng·h/mL
same,clearance,"iv, 3 mg/kg/day, IV 3.0 mg/kg/day, female, Day 1, read-out: Cl",30.1 mL/min/kg
same,half-life,"iv, 3 mg/kg/day, IV 3.0 mg/kg/day, female, Day 1, read-out: T1/2",5.7 min
same,Vd,"iv, 3 mg/kg/day, IV 3.0 mg/kg/day, female, Day 1, read-out: Vz",0.248 L/kg
same,C0,"iv, 3 mg/kg/day, IV 3.0 mg/kg/day, female, Day 14",20000 ng/mL
same,AUC(0-inf),"iv, 3 mg/kg/day, IV 3.0 mg/kg/day, female, Day 14, read-out: AUC0-∞ (converted)",1970 ng·h/mL
same,clearance,"iv, 3 mg/kg/day, IV 3.0 mg/kg/day, female, Day 14, read-out: Cl",25.9 mL/min/kg
same,half-life,"iv, 3 mg/kg/day, IV 3.0 mg/kg/day, female, Day 14, read-out: T1/2",6.13 min
same,Vd,"iv, 3 mg/kg/day, IV 3.0 mg/kg/day, female, Day 14, read-out: Vz",0.232 L/kg
same,C0,"iv, 3 mg/kg/day, IV 3.0 mg/kg/day, male, Day 1",12500 ng/mL
same,AUC(0-inf),"iv, 3 mg/kg/day, IV 3.0 mg/kg/day, male, Day 1, read-out: AUC0-∞ (converted)",1420 ng·h/mL
same,clearance,"iv, 3 mg/kg/day, IV 3.0 mg/kg/day, male, Day 1, read-out: Cl",35.9 mL/min/kg
same,half-life,"iv, 3 mg/kg/day, IV 3.0 mg/kg/day, male, Day 1, read-out: T1/2",6.01 min
same,Vd,"iv, 3 mg/kg/day, IV 3.0 mg/kg/day, male, Day 1, read-out: Vz",0.318 L/kg
same,C0,"iv, 3 mg/kg/day, IV 3.0 mg/kg/day, male, Day 14",19900 ng/mL
same,AUC(0-inf),"iv, 3 mg/kg/day, IV 3.0 mg/kg/day, male, Day 14, read-out: AUC0-∞ (converted)",1850 ng·h/mL
same,clearance,"iv, 3 mg/kg/day, IV 3.0 mg/kg/day, male, Day 14, read-out: Cl",27.4 mL/min/kg
same,half-life,"iv, 3 mg/kg/day, IV 3.0 mg/kg/day, male, Day 14, read-out: T1/2",6.05 min
same,Vd,"iv, 3 mg/kg/day, IV 3.0 mg/kg/day, male, Day 14, read-out: Vz",0.238 L/kg
same,C0,"iv, 10 mg/kg/day, IV 10 mg/kg/day, female, Day 1",53400 ng/mL
same,AUC(0-inf),"iv, 10 mg/kg/day, IV 10 mg/kg/day, female, Day 1, read-out: AUC0-∞ (converted)",4550 ng·h/mL
same,clearance,"iv, 10 mg/kg/day, IV 10 mg/kg/day, female, Day 1, read-out: Cl",37.1 mL/min/kg
same,half-life,"iv, 10 mg/kg/day, IV 10 mg/kg/day, female, Day 1, read-out: T1/2",5.41 min
same,Vd,"iv, 10 mg/kg/day, IV 10 mg/kg/day, female, Day 1, read-out: Vz",0.288 L/kg
same,C0,"iv, 10 mg/kg/day, IV 10 mg/kg/day, female, Day 14",58300 ng/mL
same,AUC(0-inf),"iv, 10 mg/kg/day, IV 10 mg/kg/day, female, Day 14, read-out: AUC0-∞ (converted)",4570 ng·h/mL
same,clearance,"iv, 10 mg/kg/day, IV 10 mg/kg/day, female, Day 14, read-out: Cl",36.7 mL/min/kg
same,half-life,"iv, 10 mg/kg/day, IV 10 mg/kg/day, female, Day 14, read-out: T1/2",5.9 min
same,Vd,"iv, 10 mg/kg/day, IV 10 mg/kg/day, female, Day 14, read-out: Vz",0.312 L/kg
same,C0,"iv, 10 mg/kg/day, IV 10 mg/kg/day, male, Day 1",26400 ng/mL
same,AUC(0-inf),"iv, 10 mg/kg/day, IV 10 mg/kg/day, male, Day 1, read-out: AUC0-∞ (converted)",3930 ng·h/mL
same,clearance,"iv, 10 mg/kg/day, IV 10 mg/kg/day, male, Day 1, read-out: Cl",42.7 mL/min/kg
same,half-life,"iv, 10 mg/kg/day, IV 10 mg/kg/day, male, Day 1, read-out: T1/2",5.09 min
same,Vd,"iv, 10 mg/kg/day, IV 10 mg/kg/day, male, Day 1, read-out: Vz",0.318 L/kg
same,C0,"iv, 10 mg/kg/day, IV 10 mg/kg/day, male, Day 14",51400 ng/mL
same,AUC(0-inf),"iv, 10 mg/kg/day, IV 10 mg/kg/day, male, Day 14, read-out: AUC0-∞ (converted)",4680 ng·h/mL
same,clearance,"iv, 10 mg/kg/day, IV 10 mg/kg/day, male, Day 14, read-out: Cl",36.6 mL/min/kg
same,half-life,"iv, 10 mg/kg/day, IV 10 mg/kg/day, male, Day 14, read-out: T1/2",6 min
same,Vd,"iv, 10 mg/kg/day, IV 10 mg/kg/day, male, Day 14, read-out: Vz",0.316 L/kg
